The text below walks through data of ChEMBL document CHEMBL4321794, “Discovery and Optimization of 2-Arylquinazolin-4-ones into a Potent and Selective Tankyrase Inhibitor Modulating Wnt Pathway Activity” (J Med Chem, 2019).

Structures are written as SMILES. Values after ≈ are worked out from the molar mass of the structure shown. A value given as a limit tells only on which side of the number the result lay.

Series [1] deals with Voltage-gated inwardly rectifying potassium channel KCNH2 (Homo sapiens, UniProt Q12809). The series is described as follows: Inhibition of human ERG expressed in HEK293 cells at -80 mV holding potential by whole cell patch clamp method. In kind it is cell-based.
The target in series [2] is T1, Poly [ADP-ribose] polymerase 1 (Homo sapiens, UniProt P09874). The series is described as follows: Inhibition of recombinant human full-length Myc/His-tagged Parp-1 expressed in baculovirus infected Sf21 insect cells assessed as reduction in auto-PARsylation using activated DNA as substrate incubated for 150 mins in presence of NAD and bio-NAD as co-substrate by TR-FRET assay.

The target of series [3] is T2, Poly [ADP-ribose] polymerase tankyrase-1 (Homo sapiens, UniProt O95271).
T2 sequence (O95271 whole entry): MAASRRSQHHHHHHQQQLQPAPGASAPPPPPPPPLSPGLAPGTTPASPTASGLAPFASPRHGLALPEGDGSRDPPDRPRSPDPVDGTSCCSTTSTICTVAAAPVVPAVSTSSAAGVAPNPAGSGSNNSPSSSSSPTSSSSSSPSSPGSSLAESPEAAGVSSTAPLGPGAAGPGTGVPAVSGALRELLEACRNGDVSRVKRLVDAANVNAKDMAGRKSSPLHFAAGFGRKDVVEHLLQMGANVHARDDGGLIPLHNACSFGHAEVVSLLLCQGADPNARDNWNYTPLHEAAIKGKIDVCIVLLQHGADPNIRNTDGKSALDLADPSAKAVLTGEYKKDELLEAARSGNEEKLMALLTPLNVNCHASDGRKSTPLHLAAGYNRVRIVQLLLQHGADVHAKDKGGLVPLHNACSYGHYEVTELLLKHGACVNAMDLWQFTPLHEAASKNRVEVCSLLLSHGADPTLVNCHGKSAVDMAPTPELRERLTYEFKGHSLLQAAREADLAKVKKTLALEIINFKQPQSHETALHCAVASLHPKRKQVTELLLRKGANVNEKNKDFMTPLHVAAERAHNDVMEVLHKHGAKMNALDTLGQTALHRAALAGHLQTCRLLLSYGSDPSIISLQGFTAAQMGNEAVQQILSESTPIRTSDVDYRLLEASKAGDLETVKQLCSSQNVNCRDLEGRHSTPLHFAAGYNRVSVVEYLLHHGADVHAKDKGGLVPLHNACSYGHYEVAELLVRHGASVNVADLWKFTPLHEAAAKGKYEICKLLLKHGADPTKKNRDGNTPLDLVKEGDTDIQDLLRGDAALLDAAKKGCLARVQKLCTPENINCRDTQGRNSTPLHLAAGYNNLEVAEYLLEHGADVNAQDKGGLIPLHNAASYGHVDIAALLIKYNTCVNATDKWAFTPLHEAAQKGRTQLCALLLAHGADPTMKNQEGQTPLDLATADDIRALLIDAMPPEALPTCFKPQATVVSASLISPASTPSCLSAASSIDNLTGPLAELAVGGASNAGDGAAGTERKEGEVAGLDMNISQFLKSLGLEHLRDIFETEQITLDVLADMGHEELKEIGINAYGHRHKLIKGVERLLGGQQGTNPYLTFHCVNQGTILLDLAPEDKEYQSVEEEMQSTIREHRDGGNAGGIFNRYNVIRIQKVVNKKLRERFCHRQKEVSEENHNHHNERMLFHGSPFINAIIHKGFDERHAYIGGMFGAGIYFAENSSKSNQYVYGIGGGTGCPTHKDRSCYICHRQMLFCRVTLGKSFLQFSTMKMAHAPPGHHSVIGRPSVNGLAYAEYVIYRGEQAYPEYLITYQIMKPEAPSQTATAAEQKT
Set-up: species or system Sf9.

Series [4] is described as follows: Intrinsic clearance in human liver microsomes assessed per mg protein in presence of NADPH by UPLC analysis. Type of series: ADME, Microsome. The conditions noted are these: read-out: CLH.
A short description of series [5]: Thermodynamic solubility in phosphate buffer at pH 7.4 at 2 mg incubated under shaking condition for 6 hrs followed by rechecking and readjusting pH to 7.4 and further incubated for 18 hrs by HPLC/UV detection method. Conditions: read-out: Therm_solubility. In kind it is physicochemical.
A short description of series [6]: Intrinsic clearance in mouse liver microsomes assessed per mg protein in presence of NADPH by UPLC analysis. In kind it is ADME, Microsome. The conditions noted are these: read-out: CLH.
The target of series [7] is T2, Poly [ADP-ribose] polymerase tankyrase-1. The series is described as follows: biochemical.
Description: Inhibition of GST tagged-TEV cleavage site-fused human recombinant TNKS1 (1023 to 1327 residues) expressed in baculovirus infected Sf9 cells assessed as reduction in auto-PARsylation incubated for 90 mins in presence of bio-NAD as co-substrate by TR-FRET assay
The next series has as its target T3, Tankyrase 1/2 (Homo sapiens, UniProt Q9H2K2+O95271).
T3 sequence (Q9H2K2 whole entry): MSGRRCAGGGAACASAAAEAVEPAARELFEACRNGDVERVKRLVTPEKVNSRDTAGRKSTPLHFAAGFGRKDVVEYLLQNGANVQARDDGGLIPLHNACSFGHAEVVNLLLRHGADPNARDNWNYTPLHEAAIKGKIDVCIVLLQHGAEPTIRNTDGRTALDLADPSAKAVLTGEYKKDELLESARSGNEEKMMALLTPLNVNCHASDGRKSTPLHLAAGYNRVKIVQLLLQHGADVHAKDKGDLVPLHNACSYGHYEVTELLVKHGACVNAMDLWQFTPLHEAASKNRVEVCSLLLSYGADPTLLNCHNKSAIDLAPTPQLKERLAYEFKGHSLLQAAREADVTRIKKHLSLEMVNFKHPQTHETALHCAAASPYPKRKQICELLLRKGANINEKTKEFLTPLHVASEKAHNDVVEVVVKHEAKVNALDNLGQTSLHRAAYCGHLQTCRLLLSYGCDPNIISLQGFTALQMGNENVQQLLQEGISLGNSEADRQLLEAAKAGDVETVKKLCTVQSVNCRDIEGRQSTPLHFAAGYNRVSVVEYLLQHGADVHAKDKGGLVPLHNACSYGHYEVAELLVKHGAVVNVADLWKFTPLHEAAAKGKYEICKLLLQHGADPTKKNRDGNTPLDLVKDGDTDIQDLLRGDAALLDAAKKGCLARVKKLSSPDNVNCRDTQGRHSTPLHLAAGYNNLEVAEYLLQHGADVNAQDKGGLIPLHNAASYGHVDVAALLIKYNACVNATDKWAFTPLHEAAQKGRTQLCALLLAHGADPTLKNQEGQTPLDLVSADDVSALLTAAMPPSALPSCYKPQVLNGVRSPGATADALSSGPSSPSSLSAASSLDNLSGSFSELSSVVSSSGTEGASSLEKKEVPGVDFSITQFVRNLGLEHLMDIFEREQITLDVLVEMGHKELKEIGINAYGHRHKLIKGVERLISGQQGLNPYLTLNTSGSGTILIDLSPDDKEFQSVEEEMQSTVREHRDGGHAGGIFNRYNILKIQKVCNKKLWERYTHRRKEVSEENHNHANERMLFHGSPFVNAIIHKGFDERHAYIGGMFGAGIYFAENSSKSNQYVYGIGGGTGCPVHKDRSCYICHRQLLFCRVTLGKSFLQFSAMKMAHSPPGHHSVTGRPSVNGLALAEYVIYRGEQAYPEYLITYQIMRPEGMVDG
T3 sequence (O95271 whole entry): T2 sequence (O95271 whole entry)

Series [8] addresses T4, Poly [ADP-ribose] polymerase tankyrase-2 (Homo sapiens, UniProt Q9H2K2).
T4 sequence (Q9H2K2 whole entry): T3 sequence (Q9H2K2 whole entry)
The series is described as follows: biochemical.
Description: Inhibition of GST tagged-TEV cleavage site-fused human recombinant TNKS2 (873 to 1166 residues) expressed in baculovirus infected Sf9 cells assessed as reduction in auto-PARsylation incubated for 90 mins in presence of bio-NAD as co-substrate by TR-FRET assay

Series [9] addresses T4, Poly [ADP-ribose] polymerase tankyrase-2. The series is described as follows: biochemical. This is another data set of the same source.
Description: Inhibition of GST tagged-TEV cleavage site-fused human recombinant TNKS2 (873 to 1166 residues) expressed in baculovirus infected sf9 cells assessed as reduction in auto-PARsylation incubated for 60 mins in presence of bio-NAD as co-substrate by ELISA
Series [10] has as its target T1, Poly [ADP-ribose] polymerase 1. As to the kind of experiment: Inhibition of recombinant human full-length Myc/His-tagged Parp-1 expressed in baculovirus infected Sf21 insect cells assessed as reduction in auto-PARsylation at 10 uM using activated DNA as substrate incubated for 150 mins in presence of NAD and bio-NAD as co-substrate by TR-FRET assay relative to control.

T1 sequence (P09874 whole entry): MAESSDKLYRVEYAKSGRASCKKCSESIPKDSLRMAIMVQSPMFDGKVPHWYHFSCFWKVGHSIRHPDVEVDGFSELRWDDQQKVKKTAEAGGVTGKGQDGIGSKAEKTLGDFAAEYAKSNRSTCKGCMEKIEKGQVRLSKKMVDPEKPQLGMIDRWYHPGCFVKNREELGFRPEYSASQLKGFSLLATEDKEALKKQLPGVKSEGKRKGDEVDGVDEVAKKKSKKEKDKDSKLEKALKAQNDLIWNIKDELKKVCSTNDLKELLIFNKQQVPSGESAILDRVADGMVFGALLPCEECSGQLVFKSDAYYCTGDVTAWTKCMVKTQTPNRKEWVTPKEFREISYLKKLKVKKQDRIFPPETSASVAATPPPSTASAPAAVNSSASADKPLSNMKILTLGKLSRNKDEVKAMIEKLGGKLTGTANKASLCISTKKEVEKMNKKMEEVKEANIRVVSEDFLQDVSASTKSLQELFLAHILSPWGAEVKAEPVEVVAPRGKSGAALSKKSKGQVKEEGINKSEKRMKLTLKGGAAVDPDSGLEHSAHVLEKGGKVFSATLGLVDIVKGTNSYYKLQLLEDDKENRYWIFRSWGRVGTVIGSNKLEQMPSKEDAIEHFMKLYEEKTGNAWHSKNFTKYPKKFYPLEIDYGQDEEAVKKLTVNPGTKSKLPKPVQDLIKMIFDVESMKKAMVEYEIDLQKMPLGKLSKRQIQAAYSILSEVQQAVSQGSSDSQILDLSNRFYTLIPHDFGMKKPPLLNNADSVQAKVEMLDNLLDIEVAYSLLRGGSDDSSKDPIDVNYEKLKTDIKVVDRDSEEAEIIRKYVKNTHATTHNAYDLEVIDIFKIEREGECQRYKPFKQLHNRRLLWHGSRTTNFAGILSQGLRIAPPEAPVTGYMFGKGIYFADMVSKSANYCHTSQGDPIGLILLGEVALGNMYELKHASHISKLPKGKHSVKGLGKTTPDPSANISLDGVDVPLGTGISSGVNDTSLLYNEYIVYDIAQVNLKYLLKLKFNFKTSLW
Voltage-gated inwardly rectifying potassium channel KCNH2, sequence (Q12809 whole entry): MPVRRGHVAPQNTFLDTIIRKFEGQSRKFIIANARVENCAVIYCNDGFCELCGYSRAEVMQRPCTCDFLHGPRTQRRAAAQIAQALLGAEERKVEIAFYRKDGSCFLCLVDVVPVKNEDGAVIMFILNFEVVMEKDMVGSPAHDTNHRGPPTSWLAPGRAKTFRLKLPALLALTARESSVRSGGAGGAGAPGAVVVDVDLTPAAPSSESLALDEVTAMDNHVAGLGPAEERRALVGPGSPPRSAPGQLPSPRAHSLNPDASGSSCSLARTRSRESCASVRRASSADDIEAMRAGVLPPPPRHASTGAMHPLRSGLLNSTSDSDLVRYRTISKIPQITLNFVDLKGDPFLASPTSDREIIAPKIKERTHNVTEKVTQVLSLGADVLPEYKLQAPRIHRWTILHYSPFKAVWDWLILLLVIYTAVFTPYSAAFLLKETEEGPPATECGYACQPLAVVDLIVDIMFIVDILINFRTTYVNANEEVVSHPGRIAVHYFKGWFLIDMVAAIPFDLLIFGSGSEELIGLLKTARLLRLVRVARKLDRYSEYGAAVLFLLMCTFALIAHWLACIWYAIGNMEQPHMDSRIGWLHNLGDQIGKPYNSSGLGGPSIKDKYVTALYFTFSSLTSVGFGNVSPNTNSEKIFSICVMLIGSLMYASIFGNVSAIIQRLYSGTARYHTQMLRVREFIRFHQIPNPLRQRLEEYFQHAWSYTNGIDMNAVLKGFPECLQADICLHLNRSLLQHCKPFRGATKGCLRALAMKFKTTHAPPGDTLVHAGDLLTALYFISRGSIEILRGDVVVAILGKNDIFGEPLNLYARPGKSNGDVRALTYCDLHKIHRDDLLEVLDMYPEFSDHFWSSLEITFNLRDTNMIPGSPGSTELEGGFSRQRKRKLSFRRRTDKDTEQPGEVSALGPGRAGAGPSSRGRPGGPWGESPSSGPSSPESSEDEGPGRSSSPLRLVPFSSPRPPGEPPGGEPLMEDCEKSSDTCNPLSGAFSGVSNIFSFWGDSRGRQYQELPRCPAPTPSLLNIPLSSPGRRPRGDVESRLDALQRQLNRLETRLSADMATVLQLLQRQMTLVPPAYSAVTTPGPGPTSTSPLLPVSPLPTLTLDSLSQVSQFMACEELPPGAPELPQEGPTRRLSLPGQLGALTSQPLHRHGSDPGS
Description for Tankyrase 1/2: Inhibition of tankyrase 1/2 in human DLD1 cells assessed as increase in axin2 accumulation incubated for 24 hrs by luminex based bead assay

As to `Cc1cc(F)cc2c(=O)[nH]c(-c3ccc(C4CCNCC4)cc3)nc12.Cl`, the Ki in [1] stood at 6800 nM. In addition, the IC50 in [2] is 390 nM; in series [3], 1.3 nM. The results for the microsomal CLint in series [4] and in [6] were under 10 µL/min/mg and 77 µL/min/mg, respectively. In addition, in [5], the solubility thermodynamic at 24 h is 44 µg/mL.

On to `O=c1[nH]c(-c2ccc3c(c2)OCO3)nc2ccccc12`, for which the IC50 in [2] amounted to 1700 nM; in series [7], 430 nM; in series [8], 620 nM. Moreover, the microsomal CLint in series [4] turned out to be 83 µL/min/mg; in series [6], 346 µL/min/mg. Further, the solubility thermodynamic at 24 h in series [5] stood at 1 µg/mL (≈ 3.76 µM). The molecule further yielded an EC50 on Tankyrase 1/2 of over 30000 nM.

`CC(C)(C)c1ccc(-c2nc3ccccc3c(=O)[nH]2)cc1`: the IC50 in [9] is 8.7 nM; in [2] it was over 10000 nM; in series [3], 7.9 nM. For the same molecule, the microsomal CLint in series [4] was 19 µL/min/mg; in [6] it was under 10 µL/min/mg. The solubility thermodynamic at 24 h in series [5] was under 1 µg/mL. The inhibition in series [10] is 35%. This molecule returned an EC50 on Tankyrase 1/2 of 1500 nM.

Regarding `CN1CCC(c2ccc(-c3nc4c(F)cc(F)cc4c(=O)[nH]3)cc2)CC1.O=C(O)C(F)(F)F`, the IC50 amounted to 31 nM in series [9], 3700 nM in series [2] and 31 nM in series [3]. The microsomal CLint in series [4] was under 10 µL/min/mg; in [6] it was 39 µL/min/mg. In addition, the solubility thermodynamic at 24 h in series [5] was found to be 65 µg/mL. Moreover, the EC50 at Tankyrase 1/2 is listed as 3900 nM.
